Data from patent publication US20260306525A1, “COMBINATION THERAPY GLUCOCORTICOIDS AND GINSENOSIDE” (FYTAGORAS B.V., priority 2023, published 2026).

Key:
[1] = tested on: zebrafish embryos; assay: Fish Embryo Acute Toxicity Test (FET); details: 0-120 hpf
Method: Fish Embryo Acute Toxicity Test (FET) was performed to determine the tolerated doses of the studied compounds. […] A range of three test concentrations (100, 120, and 150 μM) of Rg1, Rh1, and F1 and (25, 50, and 75M) of PPT was used. […] Stock solutions were made in DMSO, and final dilutions in egg water (60 μg/mL Instant Ocean Sea salts and 0.0025% methylene blue), such that the final DMSO concentration were 0.01%. The following controls were used: a negative control (nC, egg water), a solvent control (sC, 0.01% DMSO in egg water), and positive control (pC), 4 mg/L 3,4-dichloroaniline (Sigma-Aldrich, St. Louis, MO, USA) in egg water.
Embryos were collected around at 1.5 hpf and distributed over standard twenty-four well plates (10 embryos per well), with each well containing 2 mL of test solution. […] Five 24-well plates were prepared, each with 3 wells containing the Rg1, F1, or Rh1 solutions (100, 120, 150 μM), 3 wells containing the PPT (25, 50, and 75 μM), two for nC and sC, and one for pC (on each plate, 7 wells remained empty). All solutions were refreshed daily.
The plates were kept at a temperature between 26 and 27° C. and exposed to a 12 h light and 12 h dark cycle. At 96, and 120 hpf, the average survival rate (in %) for all experimental groups was determined. Additionally, hatching was recorded at 48 and 72 hpf. Survival rates for the studied compound and pC-treated groups from the five individual plates were averaged.

[2] = tested on: MMP9; assay: qPCR MMP9 expression in HeLa cells; format: cell-based, human; details: beclomethasone 1 μM, Rg1 20 μM or combination; for MMP9 expression, long-term: 30 h
Method: (§1) HeLa (human cervical cancer) cells were cultured in Dulbecco's Modified Eagle's (DMEM) High Glucose (HG) medium without phenol red supplemented with 10% Fetal Calf Serum (FCS) and 10% Glutamax (Sigma-Aldrich). The cells were maintained at 37° C. and 5% CO2. At 24 h before adding the treatment, the medium was replaced by DMEM HG with 10% charcoal-inactivated serum and 10% Glutamax (Sigma-Aldrich). The cells were exposed to short- and long-term compound treatments. […] Subsequently, TNF-α (10 ng/ml) was added along with the compound treatments for 6 h (this last step was not added in the actinomycin-D and cycloheximide experiments).
To determine levels of gene expression in zebrafish larvae, 3 dpf larvae were used in both wounded and non-wounded conditions, and after short- and long-term treatments. Groups of 15 larvae were collected in TRIzol reagent (ThermoFisher) and total RNA was isolated using miRNeasy mini kit (Qiagen, Hilden, Germany). For experiments in HeLa cells, cells were seeded in 6 well plates and after treatment, the cells were removed from the wells using TRIzol reagent and mRNA was isolated using miRNeasy mini kit (Qiagen) according to the manufacturer's instructions. The RNA samples were DNAse-treated utilizing the DNA-free™ DNA Removal Kit (ThermoFisher Scientific). The cDNA synthesis was performed using the iScript cDNA synthesis kit (Bio-Rad Laboratories, Hercules, CA, USA) using 1 μg of RNA per sample. For qPCR, 10 μM of forward primer and 10 μM of reverse primer, 12.5 μl of IQ SYBR Green Supermix (Bio-Rad Laboratories), and 2 μl of cDNA were added to the qPCR reaction mixture. […] Cycle threshold values (Ct values, i.e. the cycle numbers at which a threshold value of the fluorescence intensity was reached) were determined for each sample. […] The fold change per sample (compared to the respective control group) was calculated using the […]Ct method.

[3] = tested on: FKBP5; assay: qPCR FKBP5 expression in HeLa cells (GR transactivation); format: cell-based, human; details: beclomethasone 1 μM, Rg1 50 μM or combination
Method: as §1
(§2) To determine levels of gene expression in zebrafish larvae, 3 dpf larvae were used in both wounded and non-wounded conditions, and after short- and long-term treatments. Groups of 15 larvae were collected in TRIzol reagent (ThermoFisher) and total RNA was isolated using miRNeasy mini kit (Qiagen, Hilden, Germany). For experiments in HeLa cells, cells were seeded in 6 well plates and after treatment, the cells were removed from the wells using TRIzol reagent and mRNA was isolated using miRNeasy mini kit (Qiagen) according to the manufacturer's instructions. The RNA samples were DNAse-treated utilizing the DNA-free™ DNA Removal Kit (ThermoFisher Scientific). The cDNA synthesis was performed using the iScript cDNA synthesis kit (Bio-Rad Laboratories, Hercules, CA, USA) using 1 μg of RNA per sample. For qPCR, 10 μM of forward primer and 10 μM of reverse primer, 12.5 μl of IQ SYBR Green Supermix (Bio-Rad Laboratories), and 2 μl of cDNA were added to the qPCR reaction mixture. […] The qPCR reactions were performed on a MyiQ-single-color real-time PCR detection system (Bio-Rad Laboratories), with initial denaturation for 3 min, 95° C., and 40 cycles of 15 s at 95.5° C., 15 s at 60° C., and 30 s at 72° C. Cycle threshold values (Ct values, i.e. the cycle numbers at which a threshold value of the fluorescence intensity was reached) were determined for each sample. The gene expression level for each sample was normalized using the expression of ppial (peptidylprolyl isomerase Ab (cyclophilin A)) for zebrafish samples, and 18S rRNA for human cells. The fold change per sample (compared to the respective control group) was calculated using the […]Ct method.

[4] = tested on: GILZ; assay: qPCR GILZ expression in HeLa cells (GR transactivation); format: cell-based, human; details: beclomethasone 1 μM, Rg1 50 μM or combination
Method: as §1, §2

[5] = tested on: NFKBIA; assay: qPCR NFKBIA expression in HeLa cells (GR transactivation); format: cell-based, human; details: beclomethasone 1 μM, Rg1 50 μM or combination
Method: as §1, §2

[6] = tested on: il1b; assay: qPCR il1b expression in zebrafish larvae; format: in vivo, zebrafish (Danio rerio); details: for il1b expression after wounding: 10 μM beclomethasone, 50 μM Rg1 or combination, 4 h after wounding
Method: as §2, with “The gene expression level for each sample was normalized using the expression of ppial (peptidylprolyl isomerase Ab (cyclophilin A)) for zebrafish samples, and 18S rRNA for human cells.” left out
To determine mRNA levels of specific genes in zebrafish, 3 dpf larvae were used (wounded and non-wounded) and after 6 h of chemical treatments (2 h pre-wounding, 4 h post-wounding), as indicated. […] Cycle threshold values (Ct values, i.e. the cycle numbers at which a threshold value of the fluorescence intensity was reached) were determined for each sample. […] The fold change per sample (compared to the respective control group) was calculated using the ΔΔCt method.

CC(C)=CCC[C@](C)(O)[C@H]1CC[C@]2(C)[C@@H]1[C@H](O)C[C@@H]1[C@@]3(C)CC[C@H](O)C(C)(C)[C@@H]3[C@@H](O[C@@H]3O[C@H](CO)[C@@H](O)[C@H](O)[C@H]3O)C[C@]12C [Rh1]
concentration until which no effects on hatching and survival were observed [1]: 100 µM | concentration with minimal effects on hatching and survival [1]: 120 µM

CC(C)=CCC[C@](C)(O[C@@H]1O[C@H](CO)[C@@H](O)[C@H](O)[C@H]1O)[C@H]1CC[C@]2(C)[C@@H]1[C@H](O)C[C@@H]1[C@@]3(C)CC[C@H](O)C(C)(C)[C@@H]3[C@@H](O[C@@H]3O[C@H](CO)[C@@H](O)[C@H](O)[C@H]3O)C[C@]12C [Rg1, (3β,6α, 12β)-3,12-Dihydroxydammar-24-ene-6,20-diyl bis-β-D-glucopyranoside]
MMP9 expression, short-term ([2]; 6 h): slightly suppressed | MMP9 expression, long-term [2]: more strongly after long-term treatment | FKBP5 expression, long-term [3]: did not affect the expression of these genes | FKBP5 expression, short-term [3]: did not affect the expression of these genes | GILZ expression, long-term [4]: did not affect the expression of these genes | GILZ expression, short-term [4]: did not affect the expression of these genes | NFKBIA expression, long-term [5]: did not affect the expression of these genes | NFKBIA expression, short-term [5]: did not affect the expression of these genes | concentration until which no effects on hatching and survival were observed [1]: 100 µM | concentration with minimal effects on hatching and survival [1]: 120 µM | il1b expression after wounding [6]: slightly decreased the expression of these genes

C[C@H]1C[C@H]2[C@@H]3CCC4=CC(=O)C=C[C@]4(C)[C@@]3(Cl)[C@@H](O)C[C@]2(C)[C@@]1(O)C(=O)CO [beclomethasone, reference compound]
MMP9 expression, long-term [2]: the suppressive effects of beclomethasone were significantly reduced after long-term treatment | FKBP5 expression, long-term [3]: increased over time | FKBP5 expression, short-term [3]: strongly increased the expression of these genes after short-term treatment | GILZ expression, long-term [4]: reduced over time | GILZ expression, short-term [4]: strongly increased the expression of these genes after short-term treatment | NFKBIA expression, long-term [5]: reduced over time | NFKBIA expression, short-term [5]: strongly increased the expression of these genes after short-term treatment | il1b expression after wounding [6]: slightly decreased the expression of these genes | il1b expression ([6]; Example 2, wounded larvae): suppressed the expression levels of il1b, il6 and mmp9, similarly to Bec
